Measured values published in ChEMBL document CHEMBL1127768, “Possible antineoplastic agents : part 14 - synthesis, activity and QSAR studies of some 1-(substituted benzenesulphonyl)-5-oxopyrrolidine-2-carboxylic acid hydrazides” (1994).

How the values were obtained:
Assay type in all cases: functional
Mus musculus [1] = organism: Mus musculus; experiment: Observed biological activity converted into logit model against Ehrlich ascites carcinoma in mice
Mus musculus [2] = experiment: In vivo antineoplastic activity against Ehrlich ascites carcinoma fluid in mice at 50 mg/kg body weight upon intraperitoneal administration; conditions: ip
Mus musculus [3] = experiment: In vivo antineoplastic activity against Ehrlich ascites carcinoma (EAC) cells in mice at 50 mg/kg body weight upon intraperitoneal administration; conditions: ip
Mus musculus [4] = experiment: In vivo antineoplastic activity against Ehrlich ascites carcinoma fluid in mice at 1 mg/kg body weight upon intraperitoneal administration; conditions: ip
Mus musculus [5] = experiment: In vivo antineoplastic activity against Ehrlich ascites carcinoma (EAC) cells in mice at 1 mg/kg body weight upon intraperitoneal administration; conditions: ip

Structure (SMILES) | logit activity (Mus musculus [1]) | inhibition in vivo at 50 mg/kg (Mus musculus [2]) | inhibition in vivo at 50 mg/kg (Mus musculus [3]) | inhibition in vivo at 1 mg/kg (Mus musculus [4]) | inhibition in vivo at 1 mg/kg (Mus musculus [5])
O=C(NNc1ccccc1)C1CCC(=O)N1S(=O)(=O)c1ccc(Cl)cc1 (stereo unspecified) | 3.13 | 71.4% | 74.3% |  | 
NNC(=O)C1CCC(=O)N1S(=O)(=O)c1ccc(Cl)c(Cl)c1 (stereo unspecified) | 1.03 | 58.3% | 59.3% |  | 
Cc1ccc(S(=O)(=O)N2C(=O)CCC2C(=O)NNc2ccccc2)cc1 (stereo unspecified) | 1.89 | 64.3% | 77.6% |  | 
O=C(NNc1ccccc1)C1CCC(=O)N1S(=O)(=O)c1ccccc1 (stereo unspecified) | 5.59 | 85.7% | 79% |  | 
NNC(=O)C1CCC(=O)N1S(=O)(=O)c1ccc(Cl)cc1 (stereo unspecified) | 1.25 | 61.1% | 64.9% |  | 
O=C(NNc1ccccc1)C1CCC(=O)N1S(=O)(=O)c1ccc(Cl)c(Cl)c1 (stereo unspecified) | 1.16 | 57.7% | 66.8% |  | 
Cc1ccc(S(=O)(=O)N2C(=O)CCC2C(=O)NN)cc1 (stereo unspecified) | 0.61 | 52.8% | 50.1% |  | 
NNC(=O)C1CCC(=O)N1S(=O)(=O)c1ccccc1 (stereo unspecified) | -0.549 | 44.4% | 40.3% |  | 
CO[C@@]12[C@H](COC(N)=O)C3=C(C(=O)C(C)=C(N)C3=O)N1C[C@@H]1N[C@@H]12 [MITOMYCIN] |  |  |  | 100% | 100%
